This passage reports MIC results from ChEMBL document CHEMBL2146467, “Generation and exploration of new classes of antitubercular agents: The optimization of oxazolines, oxazoles, thiazolines, thiazoles to imidazo[1,2-a]pyridines and isomeric 5,6-fused scaffolds” (Bioorg Med Chem, 2012).

The structures appear in SMILES notation. In brackets after ≈: the same amount, converted by molar mass.

The assay concerns Mycobacterium tuberculosis. Kind of assay: Antimycobacterial activity against Mycobacterium bovis BCG. The class given is functional. As to conditions: variant bovis BCG.

In turn, `Cc1ccn2c(C(=O)NCc3ccccc3)c(C)nc2c1` yielded an MIC of 0.3 µM (≈ 0.0838 µg/mL).

As a reminder, the MIC is the least concentration at which growth counts as inhibited. Higher therefore signals a need for much substance.
